Assay results taken from patent US8754101B2, “N-cyclobutyl-imidazopyridine-methylamine as TRPV1 antagonists” (Glaxo Group Limited, priority 2011, dated 2014).
Where a name gives a salt, the structure may show the parent alone.

Biological target: T1, TRPV1 receptor (Homo sapiens, UniProt Q8NER1)
T1 construct: expressed in transfected cells; host or cells: HEK-293 cells stably expressing mitochondrial targeted Aequorin, transduced with TRPV1 BacMam
Experiment: Capsaicin assay for TRPV1 receptor antagonism (aequorin luminescence, HEK-293 cells expressing TRPV1)
Type: cell-based
Conditions: HEK-293 cells expressing TRPV1, pH 7.4, challenge with 4×EC50 capsaicin, 15 min preincubation; read-out: pIC50 in the Capsaicin assay (converted)
Method: Assays for the functional inhibition of TRPV1 Ion Channel by test compound using Capsaicin or Acid Stimulus challenge were performed.
Compounds were dissolved in DMSO to 1 mM. An 11 point 4 fold serial dilution was prepared and 0.5 ul dispensed into Greiner black clear bottom 384 well plates.
HEK-293 cells stably expressing mitochondrial targeted Aequorin were transfected with TRPV1 receptor bacmam at scale for cryopreservation in 1 ml vial aliquots. Cells can be stored at −140° C. for up to 18 months.
18-20 hours before assay, cells were rapidly thawed in a water bath at 37° C. and transferred to a 50 ml Falcon tube. Cells were resuspended in 9 mls of M1 ‘generic’ media (DMEM/F12 with 10% dialysed FBS-Invitrogen 041-95750V) for every 1 ml cells and then centrifuged for 5 min at 1000 rpm. The cell pellet was resuspended in ˜10 mls loading buffer (Tyrodes Base Buffer*+0.1% Pluronic Acid F68 solution+0.1% BSA) and the pH was adjusted to 7.4 for Capsaicin stimulus assay or 6.7 for Acid stimulus assay. Cell density was calculated using the Trypan Blue stain method and adjusted to 2.5×10 e6 cells/ml using loading buffer. Coelentrazine (DiscoverX Cat. No 0-0084L-500 uM stock made in 100% ethanol) was added to a final concentration of 5 uM and the falcon tube was covered in foil (to protect from light) and placed on a windmill rotator at room temperature for approximately 20 hours. *Base Buffer=Sigma kit T2145 was dissolved in deionised water, 20 mL HEPES solution (Sigma H0887) and 13.4 mL of NaHCO3 (Sigma S8761) and made up to 1 L.
After loading, a cell count was taken and cell density adjusted accordingly depending on assay stimulus.
For Capsaicin stimulus assay cells were diluted to 1.25×10 e5 cells/ml using dilution buffer (Tyrodes Base Buffer+0.1% Pluronic Acid F68 solution) at pH 7.4
To the compound plates, the following additions were made:
20 ul dilution buffer at pH 7.4 followed by 20 ul cells were added to the test compound plate and any agonist activity measured as luminescence AUC counts. The compound/cell mix was incubated for 15 minutes and then challenged with 20 ul of a 4×EC50 concentration of Capsaicin (calculated on the day of assay), with concomitant luminescence detection.
AUC data was exported from the reader and data analysis was performed using 4 parameter logistic model, with data normalised to nominal high and low controls within plate.

T1 sequence (Q8NER1 whole entry): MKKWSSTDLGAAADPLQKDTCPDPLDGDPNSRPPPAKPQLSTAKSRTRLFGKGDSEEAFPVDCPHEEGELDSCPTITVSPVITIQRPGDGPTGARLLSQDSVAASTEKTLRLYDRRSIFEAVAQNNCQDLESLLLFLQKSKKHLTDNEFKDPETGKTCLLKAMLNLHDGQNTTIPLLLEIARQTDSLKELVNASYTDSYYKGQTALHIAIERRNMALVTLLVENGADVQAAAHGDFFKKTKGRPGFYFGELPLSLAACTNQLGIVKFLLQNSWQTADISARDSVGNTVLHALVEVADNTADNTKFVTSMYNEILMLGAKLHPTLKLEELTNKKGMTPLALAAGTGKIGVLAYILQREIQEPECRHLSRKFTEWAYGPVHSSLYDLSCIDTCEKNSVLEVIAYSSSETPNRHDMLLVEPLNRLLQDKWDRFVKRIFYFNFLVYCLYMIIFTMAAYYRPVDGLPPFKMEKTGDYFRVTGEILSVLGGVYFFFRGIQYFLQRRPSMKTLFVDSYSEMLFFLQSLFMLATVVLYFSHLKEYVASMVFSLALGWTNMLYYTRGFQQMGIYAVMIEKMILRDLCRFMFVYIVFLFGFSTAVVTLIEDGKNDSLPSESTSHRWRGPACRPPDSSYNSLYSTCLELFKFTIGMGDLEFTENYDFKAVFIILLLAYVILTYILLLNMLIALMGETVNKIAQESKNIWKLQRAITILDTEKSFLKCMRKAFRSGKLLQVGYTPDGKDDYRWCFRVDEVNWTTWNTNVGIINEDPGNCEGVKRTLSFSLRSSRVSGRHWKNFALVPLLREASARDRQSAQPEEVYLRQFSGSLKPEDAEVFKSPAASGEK

Row | SMILES | IC50
1 | FC(F)(F)c1cccc(O[C@H]2C[C@H](NCc3cccn4ccnc34)C2)c1 [Example 1, trans-N-(Imidazo[1,2-a]pyridin-8-ylmethyl)-3-{[3-(trifluoromethyl)phenyl]oxy}cyclobutanamine] | 1.26 to 100 nM
2 | Clc1cccc(O[C@H]2C[C@H](NCc3cccn4ccnc34)C2)c1Cl [Example 2, trans-3-[(2,3-Dichlorophenl)oxy]-N-(imidazo[1,2-a]pyridin-8-ylmethyl)cyclobutanamine] | 1.26 to 100 nM
3 | FC(F)(F)c1cccc(O[C@H]2C[C@H](NCc3cccn4ccnc34)C2)c1Cl [Example 4, trans-3-{[2-Chloro-3-(trifluoromethyl)phenyl]oxy}-N-(imidazo[1,2-a]pyridin-8-ylmethyl)cyclobutanamine] | 1.26 to 100 nM
4 | Fc1ccc(O[C@H]2C[C@H](NCc3cccn4ccnc34)C2)cc1Cl [Example 5, trans-3-[(3-Chloro-4-fluorophenyl)oxy]-N-(imidazo[1,2-a]pyridin-8-ylmethyl)cyclobutanamine, trifluoroacetate] | 1.26 to 100 nM
5 | FC(F)(F)c1cc(O[C@H]2C[C@H](NCc3cccn4ccnc34)C2)ccc1Cl [Example 6, trans-3-{[4-Chloro-3-(trifluoromethyl)phenyl]oxy}-N-(imidazo[1,2-a]pyridin-8-ylmethyl)cyclobutanamine] | 1.26 to 100 nM
6 | Fc1ccc(O[C@H]2C[C@H](NCc3cccn4ccnc34)C2)cc1C(F)(F)F [Example 7, trans-3-{[4-Fluoro-3-(trifluoromethyl)phenyl]oxy}-N-(imidazo[1,2-a]pyridin-8-ylmethyl)cyclobutanamine] | 1.26 to 100 nM
7 | FC(F)(F)c1ccc(O[C@H]2C[C@H](NCc3cccn4ccnc34)C2)c(Cl)c1 [Example 8, trans-3-{[2-Chloro-4-(trifluoromethyl)phenyl]oxy}-N-(imidazo[1,2-a]pyridin-8-ylmethyl)cyclobutanamine] | 1.26 to 100 nM
8 | FC(F)(F)c1cc(Cl)ccc1O[C@H]1C[C@H](NCc2cccn3ccnc23)C1 [Example 9, trans-3-{[4-Chloro-2-(trifluoromethyl)phenyl]oxy}-N-(imidazo[1,2-a]pyridin-8-ylmethyl)cyclobutanamine] | 1.26 to 100 nM
9 | CC(C)(C)c1c(F)cc(O[C@H]2C[C@H](NCc3cccn4ccnc34)C2)cc1F [Example 11, trans-3-{[4-(1,1-Dimethylethyl)-3,5-difluorophenyl]oxy}-N-(imidazo[1,2-a]pyridin-8-ylmethyl)cyclobutanamine] | 1.26 to 100 nM
10 | CC(C)(C)c1c(F)cc(O[C@H]2C[C@@H](NCc3cccn4ccnc34)C2)cc1F [Example 12, cis-3-{[4-(1,1-Dimethylethyl)-3,5-difluorophenyl]oxy}-N-(imidazo[1,2-a]pyridin-8-ylmethyl)cyclobutanamine] | 1.26 to 100 nM
11 | OCc1ccc(CN[C@H]2C[C@H](Oc3cccc(Cl)c3Cl)C2)c2nccn12 [Example 13, {8-[({trans-3-[(2,3-Dichlorophenyl)oxy]cyclobutyl}amino)methyl]imidazo[1,2-a]pyridin-5-yl}methanol] | 1.26 to 100 nM
12 | OCc1ccc(CN[C@H]2C[C@H](Oc3ccc(F)c(C(F)(F)F)c3)C2)c2nccn12 [Example 14, (8-{[(trans-3-{[4-Fluoro-3-(trifluoromethyl)phenyl]oxy}cyclobutyl)amino]methyl}imidazo[1,2-a]pyridin-5-yl)methanol] | 1.26 to 100 nM
13 | OCc1cnc2c(CN[C@H]3C[C@H](Oc4cccc(Cl)c4Cl)C3)cccn12 [Example 15, {8-[({trans-3-[(2,3-Dichlorophenyl)oxy]cyclobutyl}amino)methyl]imidazo[1,2-a]pyridin-3-yl}methanol] | 1.26 to 100 nM

Test system: i.v. Capsaicin Induced Bronchoconstriction
Experiment: Inhibition of i.v. capsaicin induced bronchoconstriction in anesthetized guinea pigs
Type: in vivo
Conditions: Cavia porcellus, intra-tracheal dosing 1 hour before capsaicin 20 ug/kg i.v., estimated from dose response 0.005-5 mg/kg
Method: Male Hartley Guinea Pigs weighing between 400 and 700 g were anesthetized with ketamine/xylazine mixture (88/15 mg/kg, i.m.). Animals were placed on their back, a toe pinch was performed to ensure depth of anaesthesia and a section of skin and fur was dissected away from the neck. The trachea, jugular vein, and carotid artery were isolated and cannulated to allow for ventilation, drug delivery, and blood pressure monitoring. Compounds were delivered via intra-tracheal delivery (in 200 uL of 0.5% Tween 80) 1 hour before capsaicin challenge. Depth of anaesthesia was confirmed by toe pinch and the Guinea pigs were placed in the full body plethysmograph. The chamber was closed and the animal was paralyzed by administration of Gallamine (2 mg/kg i.v.). Animals were ventilated at ˜1.0 mL/110 g, 60-65 breaths per minute by a Harvard Apparatus rodent respirator. Blood pressure and heart rate were continuously monitored to assess the level of anaesthesia, with supplemental anaesthetic doses given as required to maintain the proper level of anaesthesia. […] The BioWindow Cardio Pulmonary Software version 1.02 (Modular Instruments, Inc.) recorded arterial pressure, pulmonary pressure and airflow. Air pressure delta (difference between maximum and minimum air pressure) was used as the primary readout of inhibition of the capsaicin induced bronchoconstriction. […]

Row | SMILES | ED50
14 | Cl.Fc1ccc(O[C@H]2C[C@H](NCc3cccn4ccnc34)C2)cc1C(F)(F)F [Example 7A, trans-3-{[4-Fluoro-3-(trifluoromethyl)phenyl]oxy}-N-(imidazo[1,2-a]pyridin-8-ylmethyl)cyclobutanamine, hydrochloride salt] | 0.033 mg/kg

Same assay, conditions: dose 30 ug/kg intra-tracheal, 1 hour before capsaicin 20 ug/kg i.v., n=3

Row | SMILES | inhibition of capsaicin induced bronchoconstriction
15 | OCc1ccc(CN[C@H]2C[C@H](Oc3cccc(Cl)c3Cl)C2)c2nccn12 [Example 13, {8-[({trans-3-[(2,3-Dichlorophenyl)oxy]cyclobutyl}amino)methyl]imidazo[1,2-a]pyridin-5-yl}methanol] | 61% (+/−16.6%)

Test system: not listed separately
Experiment: Solubility in simulated lung fluid
Type: physicochemical
Conditions: Phosphate buffer, pH 6.9, 0.75 mM lecithin, 0.1% BSA, 37° C. over 4 hours

Row | SMILES | solubility at 4 h
16 | Fc1ccc(O[C@H]2C[C@H](NCc3cccn4ccnc34)C2)cc1C(F)(F)F.O=C(O)/C=C\C(=O)O [Example 7B, trans-3-{[4-Fluoro-3-(trifluoromethyl)phenyl]oxy}-N-(imidazo[1,2-a]pyridin-8-ylmethyl)cyclobutanamine, maleate salt] | 1780 µg/mL
